Results reported in patent US20240174690A1, “ANNULATED 2-AMINO-3-CYANO THIOPHENES AND DERIVATIVES FOR THE TREATMENT OF CANCER” (BOEHRINGER INGELHEIM INTERNATIONAL GMBH, priority 2021, published 2024).
Values after ≈ are worked out from the molar mass of the structure shown. Where two headings read alike, the source gives them in different places.

Tests used:
[1] = tested on: KRAS G12C-dependent Ba/F3 cells; experiment: Ba/F3 proliferation assay, KRAS G12C; type: cell-based; conditions: Mus musculus, BaF3, 72 h, AlamarBlue
How it was run: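 IL-3-independent Ba/F3 lines driven by transduced KRAS G12C, G12D or G12V, with puromycin withdrawn about ten days before testing. Viability after compound treatment measured by AlamarBlue fluorescence in duplicate, and values derived by curve fitting.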

NCI-H358 cells = experiment: NCI-H358 CTG proliferation assay (120 h) (NSCLC, G12C); type: cell-based, human; conditions: Homo sapiens, assay 2, CTG, read-out: H358 (assay 2) IC50
How it was run: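 IC50 values derive from four-parameter nonlinear regression of CellTiter-Glo viability (RLU relative to DMSO wells) after 120 h of exposure. Cells were plated in RPMI-1640 + 10% FCS at 2000 per well (assay 1) or 200 per well (assay 2). Untreated cells were measured at compound addition as T0.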

[2] = Solubility measurement (DMSO solution method), McIlvaine buffer pH 4.5 or 6.8; type: physicochemical; conditions: aqueous buffer, kinetic from dmso stock, DMSO stock diluted to 250 μM, 24 h shaking at ambient temperature
How it was run: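 Filtrate concentration by LC-UV, calibrated to a known-concentration reference dissolved completely in acetonitrile/water (1:1). Samples came from 250 µM final dilutions of DMSO stock in pH 4.5 or 6.8 McIlvaine buffer, shaken 24 h at ambient temperature, then filtered.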

LOVO cells = experiment: LOVO CTG proliferation assay (120 h) (CRC, G13D); type: cell-based; conditions: Homo sapiens, CTG 120 h
How it was run: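 IC50 comes from a four-parameter fit of CellTiter-Glo viability, expressed as RLU relative to DMSO wells. Compound exposure lasted 120 h in LOVO cells seeded the day before at 1000 cells/well in DMEM with 10% fetal calf serum.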

[3] = Caco-2 assay (permeability PappAB, PappBA, efflux ratio); type: in vitro ADME; conditions: human, Caco-2, 10 μM test compound, pH 7.4; for Papp A→B at 90 min, 10 μM: apical to basolateral; for efflux ratio at 90 min, 10 μM: efflux ratio PappBA/PappAB, read-out: Caco ER
How it was run: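 Bidirectional permeability (apical-to-basolateral and reverse) through polarized Caco-2 monolayers, BSA 0.25% on each side, 37 °C. Donor and receiver sampled at 0-90 min after 25-30 min preincubation, analysed by HPLC/MS/MS. Apparent permeabilities derived from transfer rate normalised to area and t=0 donor concentration; ER taken as PappBA over PappAB.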

[4] = McIlvaine buffer pH 4.5, read-out: solubility pH 4.5
[5] = McIlvaine buffer pH 6.8, read-out: solubility pH 6.8

IC50 [1] [nM] | IC50 (NCI-H358 cells) [nM] | solubility at 24 h [2, 4] [µg/mL] | solubility at 24 h [2, 5] [µg/mL] | IC50 (LOVO cells) [nM] | Papp A→B at 90 min, 10 μM [3] [×10⁻⁶ cm/s] | efflux ratio at 90 min, 10 μM [3] | SMILES
77 | 577 | > 125 | 101 (≈ 192 µM) | 1270 | – | – | C[C@H](Oc1cc(Cl)nc(-c2onc3c2CCC[C@@]32CCCc3sc(N)c(C#N)c32)n1)[C@@H]1CCCN1C [I-1]
9 | 163 | 68 (≈ 116 µM) | < 1 | 101 | – | – | Cc1nc(-c2cc(O[C@@H](C)[C@@H]3CCCN3C)nc(-c3onc4c3CCC[C@@]43CCCc4sc(N)c(C#N)c43)n2)cs1 [I-24]
92 | 188 | > 170 | 44 (≈ 75.5 µM) | 1060 | – | – | C[C@H](Oc1cc(-c2ccc(N)nc2)nc(-c2onc3c2CCC[C@@]32CCCc3sc(N)c(C#N)c32)n1)[C@@H]1CCCN1C [I-25]
67 | 240 | 93 (≈ 160 µM) | 8 (≈ 13.8 µM) | 390 | – | – | Cc1ccc(-c2cc(O[C@@H](C)[C@@H]3CCCN3C)nc(-c3onc4c3CCC[C@@]43CCCc4sc(N)c(C#N)c43)n2)cn1 [I-28]
18 | 2760 | > 114 | 82 (≈ 147 µM) | 1650 | – | – | C[C@H](Oc1cc(-n2nccn2)nc(-c2onc3c2CCC[C@@]32CCCc3sc(N)c(C#N)c32)n1)[C@@H]1CCCN1C [I-29]
9 | 266 | > 128 | 118 (≈ 192 µM) | – | 2.3 | 13.9 | C[C@H](O)Cn1ccc(-c2cc(O[C@@H](C)[C@@H]3CCCN3C)nc(-c3onc4c3CCC[C@@]43CCCc4sc(N)c(C#N)c43)n2)n1 [I-31]
3 | 303 | 100 (≈ 179 µM) | 14 (≈ 25.1 µM) | 159 | – | – | C[C@H](Oc1cc(-n2ccnn2)nc(-c2onc3c2CCC[C@@]32CCCc3sc(N)c(C#N)c32)n1)[C@@H]1CCCN1C [I-32]
509 | 2330 | – | – | 925 | – | – | C[C@H](Oc1cc(N2CCN(C)C3(CCC3)C2)nc(-c2onc3c2CCC[C@@]32CCCc3sc(N)c(C#N)c32)n1)[C@@H]1CCCN1C [I-44]
4 | 4 | > 161 | 7 (≈ 10.2 µM) | 23 | – | – | CO[C@H]1CCN(C)[C@@H]1[C@H](C)Oc1cc(-n2ccc(CC(=O)NC(C)C)n2)nc(-c2onc3c2CCC[C@@]32CCCc3sc(N)c(C#N)c32)n1 [I-48]
2 | 1 | > 152 | 5 (≈ 7.14 µM) | 29 | – | – | CO[C@H]1CCN(C)[C@@H]1[C@H](C)Oc1cc(-n2ccc(C(=O)N[C@@H]3CCOC3)n2)nc(-c2onc3c2CCC[C@@]32CCCc3sc(N)c(C#N)c32)n1 [I-53]
1 | 4 | 16 (≈ 22.9 µM) | < 1 | 32 | – | – | CO[C@H]1CCN(C)[C@@H]1[C@H](C)Oc1cc(-n2ccc(C(=O)N[C@H]3CCOC3)n2)nc(-c2onc3c2CCC[C@@]32CCCc3sc(N)c(C#N)c32)n1 [I-54]
1 | 6 | – | – | 8 | – | – | C[C@H](Oc1cc(-n2ccc(C(=O)N[C@H]3CCOC3)n2)nc(-c2onc3c2CCC[C@@]32CCCc3sc(N)c(C#N)c32)n1)[C@@H]1CCCN1C [I-57]
132 | – | > 152 | > 152 | 692 | 0.2 | 121 | C[C@H](Oc1cc([C@@H]2CCN(C)C2)nc(-c2noc3c2CCC[C@@]32CCCc3sc(N)c(C#N)c32)n1)[C@@H]1CCCN1C [II-37]
50 | – | > 150 | > 150 | 1220 | 0.8 | 28.8 | C[C@H](Oc1nc(-c2noc3c2CCC[C@@]32CCCc3sc(N)c(C#N)c32)cc(N2C[C@H](C)N[C@@H](C)C2)n1)[C@@H]1CCCN1C [II-46]
